Laboratory results published in US6355799B1, “Substituted benzene compounds, process for their preparation, and herbicidal and defoliant compositions containing them” (ISK Americas Incorporated, priority 1997, dated 2002).

Assays:
Format in all cases: in vivo
[1] = test system: redroot pigweed (Amaranthus retroflexus, AMARE); experiment: Pre-emerge test, greenhouse herbicide activity screening; conditions: pre-emerge; for Pre-emerge Herbicidal Activity AMARE (phytotoxicity rating, scale 0-100): rated 14 days after application, 0 = no damage, 100 = complete death; for phytotoxicity rating AMARE: 14 days after application, rating scale 0-100
Summary of the method: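 Visual ratings on a 0-100 scale (0 no damage, 100 all plants dead) were taken at 14 days after treatment. Rates of 15-1000 g ai/ha in acetone, 187 l/ha, were sprayed onto soil one day after planting (pre-emerge) or onto 2-3 leaf plants with 0.25% v/v surfactant (post-emerge).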

[2] = test system: velvetleaf (Abutilon theophrasti, ABUTH); experiment: as above; conditions: pre-emerge; for Pre-emerge Herbicidal Activity ABUTH (phytotoxicity rating, scale 0-100): rated 14 days after application, 0 = no damage, 100 = complete death; for phytotoxicity rating ABUTH: 14 days after application, rating scale 0-100
Summary of the method: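 Sandy loam pots; pre-emerge: sown 1 d pre-spray, surface-watered after, then bottom-watered. Post-emerge: sown 8–21 d before, 2–3 leaf stage, + 0.25% v/v NIS, bottom-watered. Acetone, 187 l/ha track spray, 15–1000 g ai/ha. 0–100 injury score, day 14.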

[3] = test system: barnyardgrass (Echinochloa crus-galli, ECHCG); experiment: Post-emerge test, greenhouse herbicide activity screening; conditions: Echinochloa crus-galli, post-emergence, 336 h, phytotoxicity rating 0-100 (0 no damage, 100 complete death), 14 days after application, read-out: Post-emerge Herbicidal Activity ECHCG; for pest or weed control at 63 g/ha: 63 g ai/ha; for pest or weed control at 250 g/ha: 250 g ai/ha
Summary of the method: (§1)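 Rating: 0–100 visual injury, 14 DAA. Application: acetone, 187 l/ha, 15–1000 g ai/ha, flat-fan track sprayer with nozzle 40–45 cm above soil or canopy. Post-emerge runs used 0.25% v/v surfactant on 2–3 leaf plants.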

[4] = test system: sicklepod (Cassia obtusifolia, CASOB); experiment: as above; conditions: Senna obtusifolia, post-emergence, 336 h, phytotoxicity rating 0-100 (0 no damage, 100 complete death), 14 days after application, read-out: Post-emerge Herbicidal Activity CASOB
Summary of the method: as §1

[5] = test system: redroot pigweed (Amaranthus retroflexus, AMARE); experiment: as above; conditions: Amaranthus retroflexus, post-emergence, 336 h, phytotoxicity rating 0-100 (0 no damage, 100 complete death), 14 days after application, read-out: Post-emerge Herbicidal Activity AMARE; for pest or weed control at 63 g/ha: 63 g ai/ha; for pest or weed control at 250 g/ha: 250 g ai/ha
Summary of the method: as §1

[6] = test system: ivyleaf morningglory (Ipomoea hederacea, IPOHE); experiment: as above; conditions: Ipomoea, post-emergence, 336 h, phytotoxicity rating 0-100 (0 no damage, 100 complete death), 14 days after application, read-out: Post-emerge Herbicidal Activity IPOHE; for pest or weed control at 63 g/ha: 63 g ai/ha; for pest or weed control at 250 g/ha: 250 g ai/ha
Summary of the method: as §1

[7] = test system: large crabgrass (Digitaria sanguinalis, DIGSA); experiment: as above; conditions: Digitaria sanguinalis, post-emergence, 336 h, phytotoxicity rating 0-100 (0 no damage, 100 complete death), 14 days after application, read-out: Post-emerge Herbicidal Activity DIGSA; for pest or weed control at 63 g/ha: 63 g ai/ha; for pest or weed control at 250 g/ha: 250 g ai/ha
Summary of the method: as §1

[8] = test system: velvetleaf (Abutilon theophrasti, ABUTH); experiment: as above; conditions: Abutilon theophrasti, post-emergence, 336 h, phytotoxicity rating 0-100 (0 no damage, 100 complete death), 14 days after application, read-out: Post-emerge Herbicidal Activity ABUTH; for pest or weed control at 63 g/ha: 63 g ai/ha; for pest or weed control at 250 g/ha: 250 g ai/ha
Summary of the method: as §1

[9] = test system: lambsquarters (Chenopodium album, CHEAL); experiment: as above; conditions: Chenopodium album, post-emergence, 336 h, phytotoxicity rating 0-100 (0 no damage, 100 complete death), 14 days after application, read-out: Post-emerge Herbicidal Activity CHEAL; for pest or weed control at 63 g/ha: 63 g ai/ha; for pest or weed control at 250 g/ha: 250 g ai/ha
Summary of the method: as §1

[10] = test system: johnsongrass (Sorghum halepense, SORHA); experiment: as above; conditions: Sorghum halepense, post-emergence, 336 h, phytotoxicity rating 0-100 (0 no damage, 100 complete death), 14 days after application, read-out: Post-emerge Herbicidal Activity SORHA; for pest or weed control at 63 g/ha: 63 g ai/ha; for pest or weed control at 250 g/ha: 250 g ai/ha
Summary of the method: as §1

[11] = test system: green foxtail (Setaria viridis, SETVI); experiment: as above; conditions: Setaria viridis, post-emergence, 336 h, phytotoxicity rating 0-100 (0 no damage, 100 complete death), 14 days after application, read-out: Post-emerge Herbicidal Activity SETVI
Summary of the method: as §1

Row | SMILES | Pre-emerge Herbicidal Activity AMARE (phytotoxicity rating, scale 0-100) ([1]; 63 g ai/ha) | Pre-emerge Herbicidal Activity AMARE (phytotoxicity rating, scale 0-100) ([1]; 250 g ai/ha) | Pre-emerge Herbicidal Activity ABUTH (phytotoxicity rating, scale 0-100) ([2]; 63 g ai/ha) | Pre-emerge Herbicidal Activity ABUTH (phytotoxicity rating, scale 0-100) ([2]; 250 g ai/ha) | pest or weed control at 63 g/ha [3] [%] | pest or weed control at 250 g/ha [3] [%] | pest or weed control at 63 g/ha [5] [%] | pest or weed control at 250 g/ha [5] [%] | pest or weed control at 63 g/ha [6] [%] | pest or weed control at 250 g/ha [6] [%] | pest or weed control at 63 g/ha [7] [%] | pest or weed control at 250 g/ha [7] [%] | pest or weed control at 63 g/ha [8] [%] | pest or weed control at 250 g/ha [8] [%] | pest or weed control at 63 g/ha [9] [%] | pest or weed control at 250 g/ha [9] [%] | pest or weed control at 63 g/ha [10] [%] | pest or weed control at 250 g/ha [10] [%] | further results
1 | COc1c(Cl)cc(F)c(-n2c(=O)cc(C(F)(F)F)n(C)c2=O)c1N [Compound 1-4, 3-(2-amino-4-chloro-6-fluoro-3-methoxyphenyl)-1-methyl-6-trifluoromethyl-2,4(1H, 3H)-pyrimidinedione] | 100 | 100 | 100 | 100 | 0 | 40 | 30 | 95 | 100 | 100 | 0 | 50 | 100 | 100 | 60 | 95 | 0 | 70 | phytotoxicity rating AMARE ([1]; 3.9 g ai/ha): 30; phytotoxicity rating AMARE ([1]; 7.8 g ai/ha): 100; phytotoxicity rating AMARE ([1]; 15.6 g ai/ha): 90; phytotoxicity rating AMARE ([1]; 31.3 g ai/ha): 100; phytotoxicity rating AMARE ([1]; 62.5 g ai/ha): 100; phytotoxicity rating AMARE ([1]; 125 g ai/ha): 100; phytotoxicity rating AMARE ([1]; 250 g ai/ha): 100; phytotoxicity rating ABUTH ([2]; 3.9 g ai/ha): 95; phytotoxicity rating ABUTH ([2]; 7.8 g ai/ha): 100; phytotoxicity rating ABUTH ([2]; 15.6 g ai/ha): 100; phytotoxicity rating ABUTH ([2]; 31.3 g ai/ha): 100; phytotoxicity rating ABUTH ([2]; 62.5 g ai/ha): 100; phytotoxicity rating ABUTH ([2]; 125 g ai/ha): 100; phytotoxicity rating ABUTH ([2]; 250 g ai/ha): 100; pest or weed control at 63 g/ha ([4]; 63 g ai/ha): 60%; pest or weed control at 250 g/ha ([4]; 250 g ai/ha): 100%
2 | COc1c(Cl)cc(F)c(-n2c(=O)cc(C(F)(F)F)n(C)c2=O)c1N(C(C)=O)C(C)=O [Compound 2-2, 3-(4-chloro-2-diacetylamino-6-fluoro-3-methoxyphenyl)-1-methyl-6-trifluoromethyl-2,4(1H, 3H)-pyrimidinedione] | 100 | 100 | 100 | 100 | 0 | 40 | 90 | 100 | 95 | 100 | 0 | 30 | 95 | 100 | 60 | 100 | 0 | 50 | pest or weed control at 63 g/ha ([11]; 63 g ai/ha): 0%; pest or weed control at 250 g/ha ([11]; 250 g ai/ha): 30%
